For data set [1], the system named is Mycosphaerella graminicola; Anamorph: Septoria tritici. Nature of the data set: Fungicidal activity: Leaf Blotch of Wheat (SEPTTR), wheat plants variety Yuma. The data set is classed as in vivo. The conditions noted are these: Zymoseptoria tritici. The procedure: Evaluation of Fungicidal Activity: Leaf Blotch of Wheat (Mycosphaerella graminicola; Anamorph: Septoria tritici; Bayer Code […]) Wheat plants (variety Yuma) were grown from seed in a greenhouse in 50% mineral soil/50% soil-less Metro mix until the first leaf was fully emerged, with 7-10 seedlings per pot. These plants were inoculated with an aqueous spore suspension of Septoria tritici either prior to or after fungicide treatments. After inoculation the plants were kept in 100% relative humidity (one day in a dark dew chamber followed by two to three days in a lighted dew chamber) to permit spores to germinate and infect the leaf. The plants were then transferred to a greenhouse at 20° C. for disease to develop.

For data set [2], the system named is Puccinia triticina. Synonym: Puccinia recondite f. sp. tritici. In words: Fungicidal activity: Wheat Brown Rust (PUCCRT), wheat plants variety Yuma. The data set is classed as in vivo. Further details: key to PUCCRT 3DC Disease Control: A: 50-100; B: More than 0-Less than 50; C: Not Tested; D: No activity noticed in this bioassay. The conditions noted are these: for pest or weed control at 100 ppm: Puccinia triticina; for PUCCRT 3DC Disease Control: 100 ppm. As to the method: Evaluation of Fungicidal Activity: Wheat Brown Rust (Puccinia triticina. Synonym: Puccinia recondite f. sp. tritici; Bayer Code PUCCRT) Wheat plants (variety Yuma) were grown from seed in a greenhouse in 50% mineral soil/50% soil-less Metro mix until the first leaf was fully emerged, with 7-10 seedlings per pot. These plants were inoculated with an aqueous spore suspension of Puccinia recondite f. sp. tritici either prior to or after fungicide treatments. After inoculation the plants were kept in 100% relative humidity overnight to permit spores to germinate and infect the leaf. The plants were then transferred to a greenhouse set at 24 C for disease to develop.

Where [3] appears, read: 24 h, 1 Day Protectant, read-out: SEPTTR 1DP Disease Control.
The mark [4] stands for this setting: 72 h, 3 Day Curative, read-out: SEPTTR 3DC Disease Control.
[5] abbreviates: 24 h, 1 Day Protectant, read-out: PUCCRT 1DP Disease Control.
The mark [6] stands for this setting: 72 h, 3 Day Curative, read-out: PUCCRT 3DC Disease Control.

Where two headings read alike, the source gives them in different places.

By melting point is commonly meant the temperature, or range, at which the solid turns liquid. Consider `COc1ccnc(C(=O)N[C@H]2COC(=O)[C@H](Cc3ccc(F)cc3)[C@@H](OC(=O)C(C)C)[C@H](C)OC2=O)c1O` [Compound 1, (3S,6S,7R,8R)-8-(4-fluorobenzyl)-3-(3-hydroxy-4-methoxypicolinamido)-6-methyl-4,9-dioxo-1,5-dioxonan-7-yl isobutyrate], for which the melting point was in the range of 208 to 210 °C. For the same compound, in data set [1] (setting [3]), the pest or weed control at 100 ppm is 50 to 100%. Also, the pest or weed control at 100 ppm in data set [1] (setting [4]) is 0 to 50%. Further, in data set [2] (setting [5]), the pest or weed control at 100 ppm lay in the range of 50 to 100%. For the same compound, the pest or weed control at 100 ppm in data set [2] (setting [6]) is 0 to 50%.

`COc1ccnc(C(=O)N[C@H]2COC(=O)[C@H](Cc3cccnc3)[C@@H](OC(=O)C(C)C)[C@H](C)OC2=O)c1O` [Compound 2] registered a melting point of 148 to 155 °C. Besides, the pest or weed control at 100 ppm in data set [1] (setting [3]) is 50 to 100%. For the same compound, the pest or weed control at 100 ppm in data set [1] (setting [4]) is 50 to 100%. The pest or weed control at 100 ppm in data set [2] (setting [5]) was 50 to 100%. Also, the pest or weed control at 100 ppm in data set [2] (setting [6]) lay within 50 to 100%.

`COc1ccnc(C(=O)N[C@H]2COC(=O)[C@H](Cc3ccccn3)[C@@H](OC(=O)C(C)C)[C@H](C)OC2=O)c1O` [Compound 3] showed a melting point of 92 to 95 °C. The pest or weed control at 100 ppm in data set [1] (setting [3]) was in the range of 50 to 100%. The pest or weed control at 100 ppm in data set [1] (setting [4]) lay within 50 to 100%. The pest or weed control at 100 ppm in data set [2] (setting [5]) lay within 50 to 100%. Further, the pest or weed control at 100 ppm in data set [2] (setting [6]) lay in the range of 50 to 100%.

`COc1ccnc(C(=O)N[C@H]2COC(=O)[C@H](Cc3ccc(C)cc3)[C@@H](OC(=O)C(C)C)[C@H](C)OC2=O)c1O` [Compound 4] came in with a melting point of 175 to 179 °C. Besides, the pest or weed control at 100 ppm in data set [1] (setting [3]) was 50 to 100%. Besides, the pest or weed control at 100 ppm in data set [1] (setting [4]) fell in the range of 0 to 50%. In addition, the pest or weed control at 100 ppm in data set [2] (setting [5]) lay within 50 to 100%. In addition, the pest or weed control at 100 ppm in data set [2] (setting [6]) lay within 0 to 50%.

With `COc1ccc(C[C@H]2C(=O)OC[C@H](NC(=O)c3nccc(OC)c3O)C(=O)O[C@@H](C)[C@@H]2OC(=O)C(C)C)cc1` [Compound 8], the pest or weed control at 100 ppm in data set [1] (setting [3]) was 50 to 100%; in data set [1] (setting [4]), 0 to 50%; in data set [2] (setting [5]) it was 50 to 100%; in data set [2] (setting [6]), 50 to 100%.

On to `COc1ccnc(C(=O)N[C@H]2COC(=O)[C@H](Cc3ccc(F)cc3)[C@@H](OC(=O)C(C)C)[C@H](C)OC2=O)c1OCOC(=O)C(C)C` [Compound 20], for which the pest or weed control at 100 ppm in data set [1] (setting [3]), in data set [1] (setting [4]), in data set [2] (setting [5]) and in data set [2] (setting [6]) was 50 to 100% throughout.

On to `COc1ccnc(C(=O)N[C@H]2COC(=O)[C@H](Cc3ccc(F)cc3F)[C@@H](OC(=O)C(C)C)[C@H](C)OC2=O)c1OCOC(=O)C(C)C` [Compound 21], for which the pest or weed control at 100 ppm in data set [1] (setting [3]), in data set [1] (setting [4]), in data set [2] (setting [5]) and in data set [2] (setting [6]) was 50 to 100% each time.

For `COCC[C@H]1C(=O)OC[C@H](NC(=O)c2nccc(OC)c2OCOC(=O)C(C)C)C(=O)O[C@@H](C)[C@@H]1OC(=O)C(C)C` [Compound 28], the pest or weed control at 100 ppm in data set [1] (setting [3]), in data set [1] (setting [4]), in data set [2] (setting [5]) and in data set [2] (setting [6]) was 50 to 100% in each case.

On to `COc1ccnc(C(=O)N[C@H]2COC(=O)[C@H](CCOCc3ccccc3)[C@@H](OC(=O)C(C)C)[C@H](C)OC2=O)c1OCOC(=O)C(C)C` [Compound 29], for which the pest or weed control at 100 ppm in data set [1] (setting [3]) lay within 50 to 100%; in data set [1] (setting [4]), 0 to 50%; in data set [2] (setting [5]) it was 50 to 100%; in data set [2] (setting [6]), 50 to 100%.

On to `COc1ccnc(C(=O)N[C@H]2COC(=O)[C@H](CC(=O)OC(C)(C)C)[C@@H](OC(=O)C(C)C)[C@H](C)OC2=O)c1OCOC(=O)C(C)C` [Compound 30], for which the pest or weed control at 100 ppm in data set [1] (setting [3]), in data set [1] (setting [4]), in data set [2] (setting [5]) and in data set [2] (setting [6]) was 50 to 100% each time.

In the case of `COc1ccnc(C(=O)N[C@H]2COC(=O)[C@H](CCc3cccnc3)[C@@H](OC(=O)C(C)C)[C@H](C)OC2=O)c1OCOC(=O)C(C)C` [Compound 31], the pest or weed control at 100 ppm was in the range of 0 to 50% in data set [1] (setting [3]), 0 to 50% in data set [1] (setting [4]), 50 to 100% in data set [2] (setting [5]) and 0 to 50% in data set [2] (setting [6]).

On to `COc1ccnc(C(=O)N[C@H]2COC(=O)[C@H](CCc3ccccc3)[C@@H](OC(=O)C(C)C)[C@H](C)OC2=O)c1OCOC(=O)C(C)C` [Compound 32], for which the pest or weed control at 100 ppm in data set [1] (setting [3]), in data set [1] (setting [4]), in data set [2] (setting [5]) and in data set [2] (setting [6]) was 50 to 100% throughout.

Consider `CCCCCCC[C@H]1C(=O)OC[C@H](NC(=O)c2nccc(OC)c2OCOC(=O)C(C)C)C(=O)O[C@@H](C)[C@@H]1OC(=O)C(C)C` [Compound 33], for which the pest or weed control at 100 ppm in data set [1] (setting [3]), in data set [1] (setting [4]), in data set [2] (setting [5]) and in data set [2] (setting [6]) was 50 to 100% throughout.

Regarding `CCC[C@H]1C(=O)OC[C@H](NC(=O)c2nccc(OC)c2OCOC(=O)C(C)C)C(=O)O[C@@H](C)[C@@H]1OC(=O)C(C)C` [Compound 34], the pest or weed control at 100 ppm in data set [1] (setting [3]), in data set [1] (setting [4]), in data set [2] (setting [5]) and in data set [2] (setting [6]) was 50 to 100% each time.

Turning to `COc1ccnc(C(=O)N[C@H]2COC(=O)[C@H](CCOC(=O)C(C)C)[C@@H](OC(=O)C(C)C)[C@H](C)OC2=O)c1O` [Compound 36], the pest or weed control at 100 ppm in data set [1] (setting [3]) is 50 to 100%; in data set [1] (setting [4]), 0 to 50%; in data set [2] (setting [5]), 50 to 100%. Moreover, the “PUCCRT 3DC Disease Control” value in data set [2] (3 Day Curative) was “D”.

Take `COc1ccnc(C(=O)N[C@H]2COC(=O)[C@H](CCOC(=O)C(C)(C)C)[C@@H](OC(=O)C(C)C)[C@H](C)OC2=O)c1O` [Compound 37]: the pest or weed control at 100 ppm in data set [1] (setting [3]) lay in the range of 50 to 100%; in data set [1] (setting [4]), 0 to 50%; in data set [2] (setting [5]), 50 to 100%; in data set [2] (setting [6]), 0 to 50%.

Take `COc1ccnc(C(=O)N[C@H]2COC(=O)[C@H](CCOC(=O)c3cc(OC)c(OC)c(OC)c3)[C@@H](OC(=O)C(C)C)[C@H](C)OC2=O)c1O` [Compound 41]: the pest or weed control at 100 ppm in data set [1] (setting [3]) was in the range of 0 to 50%; in data set [1] (setting [4]), 0 to 50%; in data set [2] (setting [5]), 50 to 100%. For the same compound, the “PUCCRT 3DC Disease Control” value in data set [2] (3 Day Curative) was “D”.

Regarding `COCC[C@H]1C(=O)OC[C@H](NC(=O)c2nccc(OC)c2O)C(=O)O[C@@H](C)[C@@H]1OC(=O)C(C)C` [Compound 44, (3S,6S,7R,8R)-3-(3-hydroxy-4-methoxypicolinamido)-8-(2-methoxyethyl)-6-methyl-4,9-dioxo-1,5-dioxonan-7-yl isobutyrate], the pest or weed control at 100 ppm in data set [1] (setting [3]), in data set [1] (setting [4]), in data set [2] (setting [5]) and in data set [2] (setting [6]) was 50 to 100% in each case.

Regarding `COc1ccnc(C(=O)N[C@H]2COC(=O)[C@H](CCC3CCCCC3)[C@@H](OC(=O)C(C)C)[C@H](C)OC2=O)c1O` [Compound 62], the pest or weed control at 100 ppm was 50 to 100% in data set [1] (setting [3]), 0 to 50% in data set [1] (setting [4]), 50 to 100% in data set [2] (setting [5]) and 0 to 50% in data set [2] (setting [6]).

The values above are taken from patent publication US9131690B2, “Macrocyclic picolinamides as fungicides” (Dow AgroSciences LLC, priority 2012, dated 2015).
